Entries after “also recorded” stand apart in the source; their conditions may differ. Where two headings read alike, the source gives them in different places.
Tests used:
[1] = test system: HUVEC cells; assay: Cell-ELISA: binding of anti β2GPI antibodies to HUVEC cells; format: cell-based, Human
Method: Human β2GPI is a plasma phospholipid binding protein that is required for the binding of autoantibodies in sera from patients with APS to cardiolipin (McNeil H P et al., 1990 Proc. Natl. Acad. Sci. 87, 4120–4124). […] Anti β2GPI antibodies are present in sera of APS patients. […] For cell-ELISA tests, HUVEC cells (at 40,000/well), were plated on 96 well tissue culture plates (Nunc) in 200 μl of the culture medium, and allowed to grow for 18–22 hours. Following 2 washes with Hepes buffer (10 mM Hepes pH 8, 140 mM NaCl) and 5 min incubation with the culture medium, the wells were incubated for 3 hr with 10% of normal plasma in PBS (as a source of β2 GPI protein), supplemented with 1/500 of goat anti-human Apolipoprotein-H (β2 GPI) (Affinity biologicals, PA). Parallel control wells were incubated with 10% of normal plasma from Ilex. Serial dilutions of NST500 compounds were prepared in plasma/PBS. Washes and development were as described for anti CL ELISA.
As presented in FIG. 5B, in the presence of plasma and absence of NST500, HUVEC cells supported binding of anti β2GPI to their surface. However, displacement of anti β2GPI by NST500 compounds in this system occurred in a concentration dependent manner, similar to the results obtained with CL.

[2] = test system: HUVEC cells; assay: Thrombin generation by HUVEC cells; format: cell-based, Human
Source text: In vivo, vascular endothelial cells are known to catalyze the formation of thrombin, due to expression of PS on their plasma membrane, at which pro-coagulant complexes are assembled (Van Hardee W L et al., 1994, Biochem J. 302, 305–312). Endothelial cells (EC) play an active role in determining the pro-coagulant/anti-coagulant balance in the vascular system (Gimborne M A et al., 1995, Ann. N. Y. Acad Sci 748, 122–132). Perturbed endothelial cells dramatically increase their pro-coagulant state. […] (FIG. 4D). When HUVEC cells (1.5×10^5) were incubated with the S-2366 substrate, thrombin generation was evident after a lag time of 12.5 minutes, which reflects the time required to assemble a functional complex on the HUVEC surface.
The effect of NST516 compound on HUVEC mediated-thrombin generation was studied.

[3] = test system: apoptotic HeLa cells; settings: 500 nM, FACS
Method: Detection of binding to apoptotic HeLa cells was performed according to the following procedure: Cells were plated on tissue culture plates at a density of 5×10^6 cells/10 cm dish, and grown in their normal medium at 37° C. for 18 hr. The medium was replaced with a medium containing 2% FCS and 500 μM of dopamine. Eighteen hours later, floating cells that were identified as advanced apoptotic cells were collected and transferred to a 50 ml tube. To evaluate the level of apoptosis in the cultures, aliquots of 10^5 cells from the cultures were plated on 48 wells plate and stained with Hoechst 33342 dye (Molecular Probes) at a concentration of 1 mg/ml for 20 min (as described above). Non-treated cells served as control. For collecting the non-treated cells, the medium of the culture was aspirated and discarded, the cells were rinsed with growing medium and 2 ml of medium were added to the culture dish. The cells were detached from the culture dish using a cell scraper and separated to single cells by passage through a syringe with a 18G needle.
The reactions were incubated at room temperature for 40 minutes and then 400 μl of TBS was added and cells were collected by centrifugation at 3000×g for 3 minutes. Cells were washed in 1 ml of TBS and centrifuged as before and detecting of the bound compound was performed using 100 μl of TBS containing streptavidin conjugated to fluorescein (FITC) (016-090-084 from Jackson ImmunoResearch lab. Inc.). Incubation was for 15 minutes at room temperature in the dark. Thereafter, 400 μl of TBS was added and cells were centrifuged and washed again with 1 ml of TBS as before, re-suspended in 400 μl of TBS and then taken for FACS analysis. The FACS analysis was performed on Beckton-Dickinson cell sorter, using lysis II software. Excitation was at 488 nm and emission for FITC detection was at 535 nm and for PI detection at 585 nm.

[4] = test system: BeWo cells; assay: Binding to single trophoblast BeWo cells, fluorescent microscopy; format: cell-based, Human
Method: The Human choriocarcinoma cell line BeWo that express low levels of PS on its plasma membrane (Rote N S et al., 1995, American J. of Reproductive Immunology 33, 114–121), was obtained from ECACC, cat # 86082803 and maintained in Ham's F12+ medium (01095-1A, Bet-Haemek, Israel). The medium was supplemented with 2mM of L-Glutamine; 100 units/ml of penicillin; 100 μg/ml of streptomycin, and 10% fetal calf serum (Bet-Haemek). The cells were passaged using 0.05% trypsine/EDTA (03-054-1B, Bet-Haemek,).

[5] = test system: HUVEC cells; assay: Binding to endothelial HUVEC cells by FACS analysis; format: cell-based, Human
Method: Binding detection was done using flow cytometric analysis to populations of HUVEC cells.
HUVEC (CC-2517, obtained from Clonetics, Walkersville, Md.) were grown on tissue culture flasks in Endothelial cell medium (EGM-2 Bulletkit, CC 3162, Clonetics). Mid-confluent cultures were harvested using Trypsine/EDTA solution (CC-5012, Clonetics). The cells were rinsed twice with TBS containing 2% BSA and kept on ice. Samples of 10^6 cells were tested for binding.
Cells were washed in 1 ml of TBS-BSA and centrifuged as before and then suspended in 100 μl of TBS-BSA containing streptavidin conjugated to fluorescein (FITC) for detection of the bound biotinylated compound. […] Thereafter, 400 μl of TBS-BSA were added and cells were entrifuged and re-suspended in 400 μl of TBS and taken for FACS analysis.

[6] = test system: activated platelets; settings: 2 μM
Method: Exposure of PS on the outer leaflet of platelets upon their activation is essential for efficient activation of coagulation factors. […] Fresh platelets were received from the Blood Bank in Beilinson Hospital, Israel. The platelets were centrifuged (10 minutes, 2700×g), washed and re-suspended in platelets buffer (137 mM NaCl, 2 mM MgCl2, 0.5 mM NaPi, 5 mM glucose and 20 mM Hepes pH 7.4). 100 μl of platelets were diluted 10 fold and activated for 10 minutes with 2 μM of the calcium ionophore A23187 in the presence of 5 mM of CaCl2. […] The platelets were then washed with platelets buffer and incubated with 5 μg/ml of streptavidin conjugated to fluorescein (FITC). Incubation was for 15 minutes at room temperature, followed by a wash and suspention in platelets buffer. The labeled platelets were subjected to a FACS analysis as described above.

Myristate-KVSFFCKNKEKKC-K (SEQ ID NO:1) (biotin) [NST513]
less potent than NST516 in blocking anti β2 GPI binding [1]: 50%
delay in thrombin generation [2]: 2.5 min
thrombin generation by HUVEC cells [2]: dramatic inhibition of thrombin generation; also recorded: fully block thrombin generation; also recorded: slight inhibition of thrombin generation; also recorded: further delayed the lag period; also recorded: total blockage of thrombin formation
thrombin generation by HUVEC cells, dose response [2]: dose dependent inhibition of thrombin generation
binding to apoptotic versus control HeLa cells [3]: strong labeling of apoptotic versus control cells
increase in the percentage of apoptotic cells labeled, as compared to non-apoptotic cells ([3]; PI and FITC): 5.5 fold
binding to apoptotic versus control HeLa cells ([3]; listed as NST313): specifically binds to apoptotic cells
binding to BeWo cells [4]: Typical membrane labeling is observed; also recorded: Binding of the compound to the whole population of BeWo cells was demonstrated
binding to HUVEC cells ([5]; 500 nM): strong binding
cells FITC positive ([5]; 500 nM): About 70%
fraction of HUVEC cells labeled ([5]; 250 μM): about 50%
binding intensity (FITC mean value), activated vs control non-treated platelets [6]: 20 times
increase in the percentage of platelets stained with FITC upon activation ([6]; activated (A23187) vs control platelets): 6 fold

— patent publication US7196063B1, “Peptides and pharmaceutical compositions comprising same” (NST NeuroSurvival Technologies Ltd., priority 1999, dated 2007)
